Measured values reported in patent publication US20250099420A1, “SMALL MOLECULE MODULATORS OF GPR139 COMPLEX” (University of Florida Research Foundation, Incorporated, priority 2022, published 2025).
Read-outs that look alike come from different tables or passages of the source.

Key:
parental HEK cells = assay: HEK parental Agonist Counterscreen Assay (non-transfected cells); format: cell-based; conditions: for Averaged Max % Response (±St. Dev.): activity relative to known control
Excerpt: The high control for the agonist counterscreen was Forskolin not acetylcholine.

GPR139 = biological target: T1, GPR139 (Homo sapiens, UniProt Q6DWJ6); assay: GPR139 Agonist titration / agonist counterscreen assay (calcium detection, HEK-GPR139 cells); format: cell-based; design: expressed in transfected cells; host or cells: HEK Aequorin cells, Maxcyte transient transfection; conditions: GPR139 Agonist Activity; for Averaged Max % Response (±St. Dev.): activity relative to known control; for EC50: read-out: EC50
T1 sequence (Q6DWJ6 1-353): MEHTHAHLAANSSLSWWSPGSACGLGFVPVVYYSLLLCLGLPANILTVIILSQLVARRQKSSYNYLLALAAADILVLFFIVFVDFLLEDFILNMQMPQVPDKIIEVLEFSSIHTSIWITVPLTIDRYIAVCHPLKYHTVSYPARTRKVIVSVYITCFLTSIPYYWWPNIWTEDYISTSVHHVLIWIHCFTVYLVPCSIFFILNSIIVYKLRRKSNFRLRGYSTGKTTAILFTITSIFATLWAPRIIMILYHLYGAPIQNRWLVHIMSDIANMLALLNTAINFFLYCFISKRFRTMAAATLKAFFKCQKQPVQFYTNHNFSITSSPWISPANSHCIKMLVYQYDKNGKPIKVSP
Method: GPR activity was assessed using a calcium detection assay. […] Negative control samples were treated with DMSO. […] Intracellular calcium was measured using Calcium 5.

[1] = HEK Agonist Activity section of Table 4 (parental HEK counterscreen)
[2] = values printed in E-notation without unit
[3] = Homo sapiens, HEK293, HEK Agonist Activity, parental non-transfected HEK cells
[4] = Homo sapiens, HEK293, HEK Agonist Activity section of Table 4 (parental HEK counterscreen)

Row | Compound | Lipophilic Efficiency (logD) (parental HEK cells; HEK Agonist Activity section) | Lipophilic Efficiency (logP) (parental HEK cells; HEK Agonist Activity section) | EC50 (parental HEK cells; [1]) [µM] | Averaged Max % Response (±St. Dev.) (parental HEK cells; HEK Agonist Activity section) [%] | Averaged Max % Response (±St. Dev.) (GPR139) [%] | Lipophilic Efficiency (logD) (GPR139; based on logD) | Lipophilic Efficiency (logP) (GPR139; based on logP) | Hill Slope (GPR139; fitted dose-response curve) | Efficiency Ligand (GPR139; ligand efficiency) | EC50 (GPR139; [2]) [nM] | Lipophilic Efficiency (logD) (parental HEK cells; HEK Agonist Activity) | Lipophilic Efficiency (logP) (parental HEK cells; HEK Agonist Activity) | Averaged Max % Response (±St. Dev.) (parental HEK cells; HEK Agonist Activity) [%] | EC50 (parental HEK cells; [3]) [µM] | Efficiency Ligand (GPR139) | Hill Slope (GPR139) | Lipophilic Efficiency (logD) (GPR139) | Lipophilic Efficiency (logP) (GPR139) | EC50 (GPR139; HEK-GPR139 cells) [nM] | EC50 (parental HEK cells; [4]) [µM]
1 | Cc1ccc2c(c1)CCCN2CC(=O)N(C)c1c(N)n(Cc2ccccc2)c(=O)[nH]c1=O [SR-01000070509] | 2.32 | 2.31 | > 14.3 | 15.75 ± 7.96 | 96.94 ± 14.18 | 4.29 | 4.29 | 0.89 | 0.30 | 153 | – | – | – | – | – | – | – | – | – | –
2 | Cc1cc(C(=O)CCC(=O)NNC(=O)CSc2nc3ccccc3s2)c(C)s1 [SR-01000070591] | – | – | – | – | 126.06 ± 10.32 | 4.02 | 4.02 | 0.31 | 0.39 | 13.6 | 1.00 | 1.00 | −5.74 ± 0.47 | > 14.3 | – | – | – | – | – | –
3 | O=C(Cn1nnc(-c2ccccc2)n1)NNC(=O)Cn1c(C(F)(F)F)nc2ccccc21 [SR-01000070891] | – | – | – | – | 105.87 ± 4.30 | 4.97 | 4.93 | 0.88 | 0.35 | 11.9 | 1.86 | 1.83 | 8.31 ± 6.92 | > 15.2 | – | – | – | – | – | –
4 | O=C(COc1ccccc1Cl)NNC(=O)CSc1ccc2ccccc2c1 [SR-01000071098] | – | – | – | – | 108.04 ± 6.43 | 4.08 | 4.08 | 0.77 | 0.39 | 27.4 | 1.38 | 1.37 | 24.54 ± 7.58 | > 14.1 | – | – | – | – | – | –
5 | Cc1cccc(Cc2cnc(NC(=O)CC(C)C)s2)c1 [SR-01000071221] | – | – | – | – | 129.99 ± 9.49 | 2.68 | 2.68 | 1.13 | 0.52 | 39.6 | 0.08 | 0.08 | 19.19 ± 7.12 | > 15.6 | – | – | – | – | – | –
6 | CCCCn1c(C)c(N(CC)C(=O)C(C)(C)Oc2ccc(C)cc2)c(=O)[nH]c1=O [SR-01000071222] | – | – | – | – | 126.32 ± 18.07 | 5.83 | 5.82 | – | 0.42 | – | 2.01 | 2.01 | 4.62 ± 5.04 | > 14.7 | – | – | – | – | – | –
7 | CCOc1ccccc1NC(=O)CN1C(=O)NC(C)(c2ccc(Cl)cc2Cl)C1=O (stereo not drawn) [SR-01000072797] | 1.39 | 1.39 | > 14.2 | 4.41 ± 6.50 | 94.94 ± 8.96 | – | – | – | – | – | – | – | – | – | 0.29 | 0.87 | 2.52 | 2.52 | 1000 | –
8 | Cc1ccc(C)c(C(=O)CCC(=O)NNC(=O)CSc2nc3ccccc3o2)c1 [SR-01000073202] | – | – | – | – | 119.67 ± 15.04 | 4.38 | 4.38 | – | 0.39 | > 6.6 | 1.04 | 1.04 | 12.21 ± 5.38 | > 14.5 | – | – | – | – | – | –
9 | Nc1c(Cl)c(Cl)nc(C(=O)OCC(=O)NCc2ccccc2)c1Cl [SR-01000073564] | 2.07 | 2.07 | – | 8.96 ± 14.03 | 129.62 ± 8.33 | 4.46 | 4.46 | 0.59 | 0.42 | 58.6 | – | – | – | – | – | – | – | – | – | > 14.5
10 | CC1(c2ccc3c(c2)OCO3)NC(=O)N(CC(=O)Nc2ccccc2[N+](=O)[O-])C1=O (stereo not drawn) [SR-01000074154] | 3.21 | 3.20 | > 15 | 11.86 ± 8.71 | 109.38 ± 5.55 | 5.22 | 5.22 | 0.54 | 0.32 | 147 | – | – | – | – | – | – | – | – | – | –
11 | CC(C)(C)OC(=O)NNC(=O)COCc1ccc(Cl)c(Cl)c1 [SR-01000074687] | 1.33 | 1.32 | – | 17.98 ± 4.87 | 90.02 ± 17.44 | 3.63 | 3.62 | 0.77 | 0.45 | 77.1 | – | – | – | – | – | – | – | – | – | > 15.4
12 | CC(NC(=O)CN1C(=O)c2cccc([N+](=O)[O-])c2C1=O)c1ccc(Cl)cc1Cl (stereo not drawn) [SR-01000074712] | – | – | – | – | 109.67 ± 8.84 | 4.91 | 4.91 | 0.80 | 0.40 | 9.7 | 1.73 | 1.73 | 30.27 ± 2.23 | > 14.7 | – | – | – | – | – | –
13 | CC1(c2ccc3c(c2)OCCO3)NC(=O)C(CC(=O)NCC2CCCCC2)C1=O (stereo not drawn) [SR-01000074761] | 3.15 | 3.15 | – | 13.40 ± 6.99 | 95.96 ± 3.33 | 5.32 | 5.32 | 0.92 | 0.34 | 103 | – | – | – | – | – | – | – | – | – | > 15.4
14 | COc1ccc2c(CC(=O)NNC(=O)c3cc(-c4ccccc4)no3)coc2c1 [SR-01000074979] | 2.52 | 2.51 | – | −0.33 ± 8.51 | 79.45 ± 3.43 | – | – | – | – | – | – | – | – | – | 0.31 | 0.80 | 4.03 | 4.03 | 441 | > 14.4
15 | O=C(CN1C(=O)NC2(CCCc3ccccc32)C1=O)N1CCCCCC1 (stereo not drawn) [SR-01000075116] | 2.72 | 2.72 | > 14.3 | 4.31 ± 1.95 | 81.52 ± 3.66 | 4.72 | 4.72 | 0.99 | 0.37 | 142 | – | – | – | – | – | – | – | – | – | –
